Source: patent US4416885A, “Use of isopropylaminopyrimidine in the chemotherapy of muscular dystrophy, myopathy and myotonia” (priority 1982, dated 1983)

Columns and labels:
Dystrophic monocytes = experiment: Effect on human monocytes in culture (flat cells), dystrophic; type: cell-based; conditions: dystrophic monocyte + dibutryl c-GMP, one individual; untreated dystrophic 36.2%; preliminary
[1] = test system: dystrophic New Hampshire chickens, line 413; experiment: Overall assessment of chemotherapy over all parameters measured; type: in vivo, chicken; conditions: 413 chickens, after 28 days of dilantin injections
Method: The compound IAPP was tested on dystrophic New Hampshire chickens, line 413, and Imperial College (London, England) sub-line of the original Davis, University of California strain. The chickens are homozygous for muscular dystrophy, the disease appearing with 100% incidence.
Chemotherapy was assessed by application of seven different parameters: physical tests of muscular disability, namely the flip test and wing apposition (W.A.) measurements; biochemical assays of serum and muscle enzume levels of creatine phosphokinase (CPK), pyruvate kinase (PK) and acetylcholinesterase (AChE); and histological comparisons of treated and untreated muscle. Toxicity studies (weight loss, etc.) were also used. A very comprehensive profile of the drug was thus obtained which related to all the known, highly characteristic features of the disease which are applicable to both the animal model and the human. […]

[2] = test system: dystrophic 413 muscle explants; experiment: Microtubule complexes in muscle explants of injected dystrophic chickens; type: in vivo, chicken; conditions: dystrophic 413 chickens, 28 days of dilantin injections
Source text: Essentially, these experiments were divided into three subgroups, taken from the previous Table:
413A, 413B, 412A, 412B: All were sacrificed after 4 injections and muscle explants placed in culture.
413C, 412C: All were sacrificed after 8 injections and muscle explants were placed in culture.
413D, 412D: All were sacrificed after 10 injections and muscle explants placed in culture.
All explants were placed in CMRL culture medium containing 5% horse serum, 15% fetal bovine serum and 1% antibiotics and allowed to grow for 5-7 days before being fixed and observed for the presence or absence of microtubules. No IAPP was added to the culture medium during the 5-7 days in culture.

## CCCC(=O)Nc1nc2c(ncn2[C@@H]2O[C@@H]3COP(=O)(O)O[C@H]3[C@H]2OC(=O)CCC)c(=O)[nH]1 [dibutryl c-GMP, reference compound]
Dystrophic monocytes
  % Flat Cells: 52.0%

## O=C1NC(=O)C(c2ccccc2)(c2ccccc2)N1 [dilantin, reference compound]
[1]
  Appearance of dystrophic chickens: Some dystrophic 413 chickens appeared normal
[2]
  Correction of microtubule defect in explants: did not have their microtubule defect corrected
